The test deals with T1, recombinant human seprase (rhFAP) (Homo sapiens, UniProt Q12884).
T1 sequence (Q12884 26-760 limits assumed): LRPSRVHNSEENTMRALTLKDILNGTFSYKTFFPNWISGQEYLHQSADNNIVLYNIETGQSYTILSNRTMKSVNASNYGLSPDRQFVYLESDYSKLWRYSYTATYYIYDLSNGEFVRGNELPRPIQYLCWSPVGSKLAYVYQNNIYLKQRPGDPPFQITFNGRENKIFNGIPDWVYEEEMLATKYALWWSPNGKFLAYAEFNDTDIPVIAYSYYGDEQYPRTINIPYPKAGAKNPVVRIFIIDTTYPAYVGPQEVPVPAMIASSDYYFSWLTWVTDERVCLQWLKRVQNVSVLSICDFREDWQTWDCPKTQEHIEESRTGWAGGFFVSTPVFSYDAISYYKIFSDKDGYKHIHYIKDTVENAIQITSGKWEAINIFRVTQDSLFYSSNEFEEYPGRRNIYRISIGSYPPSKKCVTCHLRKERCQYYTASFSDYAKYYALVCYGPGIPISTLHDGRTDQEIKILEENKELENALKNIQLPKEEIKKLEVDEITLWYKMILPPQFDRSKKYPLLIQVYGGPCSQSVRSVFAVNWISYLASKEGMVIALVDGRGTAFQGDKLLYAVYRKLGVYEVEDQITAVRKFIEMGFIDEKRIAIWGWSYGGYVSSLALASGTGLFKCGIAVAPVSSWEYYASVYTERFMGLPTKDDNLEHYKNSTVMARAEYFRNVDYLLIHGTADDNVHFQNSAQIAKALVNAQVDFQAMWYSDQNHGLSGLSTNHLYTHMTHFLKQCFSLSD
Briefly: Inhibition of enzymatic activity of recombinant human seprase on Z-Gly-Pro-AMC (fluorescence). It counts as biochemical. The note with it: for IC50: in vitro data against seprase, read-out: FAP (IC50 nM); for Percent of Control: initial velocity normalized to control without test compound, 50 μM Z-Gly-Pro-AMC. Here is the method:
In vitro assaying of compounds for inhibition of dipeptidyl peptidase activity of seprase and DPP-IV can be achieved following the described in Edosada C. Y. et al. J. Biolog. Chem. 2006, 281, 7437-7444.
Selected test compounds were examined for their ability to inhibit the enzymatic activity of recombinant human seprase (rhFAP) on the substrate, benzyloxycarbonyl-Gly-Pro-7-amido-4-methylcoumarin (Z-Gly-Pro-AMC). In brief, 10 μg rhFAP was added to 50 μM Z-Gly-Pro-AMC in the presence of increasing concentrations of test compound, and enzymatic activity was determined by monitoring fluorescence (Ex. 355 nm/Em. 460 nm). Compound 1051 is the known inhibitor, Cbz-Gly-boroproline. Initial velocity of the reaction was calculated and normalized to control reactions conducted in the absence of test compound.
The inhibition was measured by the half maximal inhibitory concentration (IC50) of a compound of interest. The IC50 indicates how much of a particular compound is needed to inhibit seprase by half.

The values below come from patent publication US20100098633A1, “SELECTIVE SEPRASE INHIBITORS” (Molecular Insight Pharmaceuticals, Inc., priority 2008, published 2010).

One may read the IC50 as the concentration that inhibits the measured activity by half. As to “Re(CO)3-(S)-2,2′-(2,2′-(6-(2-(2-cyanopyrrolidin-1-yl)-2-oxoethylamino)-6-oxohexylazanediyl)bis(methylene)bis(1H-imidazole-2,1-diyl))diacetic acid [Compound 1022]”, the IC50 stood at 236 nM.

With “Re(CO)3[1-(2-(6-(bis((1-methyl-1H-imidazol-2-yl)methyl)amino) hexanamido)acetyl)pyrrolidin-2-ylboronic acid] [Compound 1018]”, the IC50 turned out to be 20 nM.

For the substance “Re(CO)3[1-(2-(6-(bis(pyridin-2-ylmethyl)amino)hexanamido) acetyl)pyrrolidin-2-ylboronic acid] [Compound 1014]”, the IC50 is 21 nM.

As for “Re(CO)3[1-(6-(bis(pyridin-2-ylmethyl)amino)hexanoyl)pyrrolidin-2-ylboronic acid] [Compound 1010]”, the IC50 was found to be 2540 nM. Where the note is “inhibitor 0.005 μM”, the “Percent of Control” value was 90%. Also, the “Percent of Control” value (inhibitor 0.05 μM) is given as 95%. In addition, the “Percent of Control” value (inhibitor 0.5 μM) is reported as 82%. In addition, the “Percent of Control” value (inhibitor 5 μM) is 26%. The “Percent of Control” value (inhibitor 50 μM) was found to be 0%. Also, the “Percent of Control” value (inhibitor 500 μM) is reported as 0%.

Consider “Re(CO)3[2-((6-(2-(2-boronopyrrolidin-1-yl)-2-oxoethylamino)-6-oxohexyl)(pyridin-2-ylmethyl)amino)acetic acid] [Compound 1016]”, for which the IC50 was 3530 nM.
